Each molecule was assayed against human activated kallikrein enzyme (Homo sapiens, UniProt P03952) (assay: Inhibition of human activated plasma kallikrein, fluorogenic PFR-AMC substrate, 500 pM enzyme format). Conditions: 500 pM activated kallikrein; 300 μM PFR-AMC; 30 min preincubation; 10 min room temperature; pH 7.5; read-out: Primary Dose Response Assay: Average EC50.
Assay type: biochemical
Outline: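 Using fluorogenic PFR-AMC at 300 μM, cleavage by 500 pM human activated kallikrein ran 10 min at room temperature, read at 460 nm emission (380 nm excitation). Enzyme and compounds were first preincubated 30 min in 20 mM Tris pH 7.5, 150 mM NaCl, 1 mM EDTA, 0.1% PEG-400, 0.1% Triton X-100.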

Sequence of human activated kallikrein enzyme (P03952 391-638 limits assumed): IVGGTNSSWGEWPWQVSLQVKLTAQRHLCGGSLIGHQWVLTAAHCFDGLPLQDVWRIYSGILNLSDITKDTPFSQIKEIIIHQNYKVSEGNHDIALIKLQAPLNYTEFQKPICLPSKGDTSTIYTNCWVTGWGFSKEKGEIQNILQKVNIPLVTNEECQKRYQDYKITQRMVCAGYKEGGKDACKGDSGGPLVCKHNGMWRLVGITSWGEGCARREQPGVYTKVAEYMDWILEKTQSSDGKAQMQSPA
Sequence of human activated kallikrein enzyme (P03952 20-390 partner limits assumed): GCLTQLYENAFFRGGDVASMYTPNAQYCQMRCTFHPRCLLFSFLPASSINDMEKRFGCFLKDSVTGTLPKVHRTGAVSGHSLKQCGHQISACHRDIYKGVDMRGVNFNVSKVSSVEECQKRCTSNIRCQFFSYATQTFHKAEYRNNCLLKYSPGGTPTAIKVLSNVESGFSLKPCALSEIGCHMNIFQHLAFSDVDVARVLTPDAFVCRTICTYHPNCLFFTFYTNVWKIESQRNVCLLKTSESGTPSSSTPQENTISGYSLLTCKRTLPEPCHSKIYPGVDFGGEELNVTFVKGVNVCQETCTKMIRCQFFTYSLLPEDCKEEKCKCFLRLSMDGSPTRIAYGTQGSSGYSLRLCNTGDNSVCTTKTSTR

| SMILES | EC50 |
| --- | --- |
| Cc1cc2c(N)nccc2c(C)c1CNc1cc(OCc2cn3nc(C4CC4)ccc3n2)nc(C(F)(F)F)n1 [Example 389, 6-(((6-((6-cyclopropylimidazo[1,2-b]pyridazin-2-yl)methoxy)-2-(trifluoromethyl)pyrimidin-4-yl)amino)methyl)-5,7-dimethylisoquinolin-1-amine] | 10 to 100 nM |
| Cc1cc2c(N)nccc2c(C)c1CNC(=O)c1cnn(Cc2ccc(CC(=O)O)cc2)c1 [Example 131, 2-(4-((4-(((1-amino-5,7-dimethylisoquinolin-6-yl)methyl)carbamoyl)-1H-pyrazol-1-yl)methyl)phenyl)acetic acid] | 100 to 1000 nM |
| Cc1cc2c(N)nccc2c(C)c1CNC(=O)c1cnn(Cc2ccc(CC(=O)N3C[C@@H]4[C@H](C3)[C@H]4C(=O)O)cc2)c1 [Example 213, (1R,5S,6r)-3-(2-(4-((4-(((1-amino-5,7-dimethylisoquinolin-6-yl)methyl)carbamoyl)-1H-pyrazol-1-yl)methyl)phenyl)acetyl)-3-azabicyclo[3.1.0]hexane-6-carboxylic acid] | 10 to 100 nM |
| Cc1cc2c(N)nccc2c(C)c1CNC(=O)c1cnn(Cc2cc(Cl)cc(Cl)c2)c1 [Example 37, N-((1-amino-5,7-dimethylisoquinolin-6-yl)methyl)-1-(3,5-dichlorobenzyl)-1H-pyrazole-4-carboxamide] | 10 to 100 nM |
| Cc1cc2c(N)nccc2c(C)c1CNc1cc(OCc2ccc(Cn3cccn3)nc2)ncn1 [Example 300, 6-(((6-((6-((1H-pyrazol-1-yl)methyl)pyridin-3-yl)methoxy)pyrimidin-4-yl)amino)methyl)-5,7-dimethylisoquinolin-1-amine] | 100 to 1000 nM |
| Cc1cc2c(N)nccc2c(C)c1CNc1cc(OC(C)c2ccc(Cn3cccn3)cc2)cnn1 (single isomer, unassigned) [Example 277, (S*)-6-(((5-(1-(4-((1H-pyrazol-1-yl)methyl)phenyl)ethoxy)pyridazin-3-yl)amino)methyl)-5,7-dimethylisoquinolin-1-amine] | 10 to 100 nM |

More lines, now with the values ahead:

| EC50 | SMILES |
| --- | --- |
| 10 to 100 nM | Cc1cc2c(N)nccc2c(C)c1CNc1cc2nn(Cc3ccc(Cn4cccn4)cc3)cc2cn1 [Example I-459, 6-(((2-(4-((1H-pyrazol-1-yl)methyl)benzyl)-2H-pyrazolo[4,3-c]pyridin-6-yl)amino)methyl)-5,7-dimethylisoquinolin-1-amine] |
| 1 to 10 nM | Cc1cc2c(N)nccc2c(C)c1CNc1ccnc(OCc2ccc(Cn3cccn3)cc2)c1 [Example I-455, 6-(((2-((4-((1H-pyrazol-1-yl)methyl)benzyl)oxy)pyridin-4-yl)amino)methyl)-5,7-dimethylisoquinolin-1-amine] |
| < 1 nM | Cc1cc2c(N)nccc2c(C)c1CNc1nccc2cn(Cc3cn4cc(C5CC5)ccc4n3)nc12 [Example 271, 6-(((2-((6-cyclopropylimidazo[1,2-a]pyridin-2-yl)methyl)-2H-pyrazolo[3,4-c]pyridin-7-yl)amino)methyl)-5,7-dimethylisoquinolin-1-amine] |
| < 1 nM | Cc1cc2c(N)nccc2c(C)c1CNC(=O)c1cnn(Cc2cn3c(Cl)c(Br)ccc3n2)c1 [Example 138, N-((1-amino-5,7-dimethylisoquinolin-6-yl)methyl)-1-((6-bromo-5-chloroimidazo[1,2-a]pyridin-2-yl)methyl)-1H-pyrazole-4-carboxamide] |
| < 1 nM | Cc1cc2c(N)nccc2c(C)c1CNC(=O)c1cnn(Cc2cn3c(C)c(C)ccc3n2)c1 [Example 136, N-((1-amino-5,7-dimethylisoquinolin-6-yl)methyl)-1-((5,6-dimethylimidazo[1,2-a]pyridin-2-yl)methyl)-1H-pyrazole-4-carboxamide] |
| 1 to 10 nM | Cc1cc2c(N)nccc2c(C)c1CNc1cc2c(cn1)cnn2Cc1ccc(Cn2cccn2)cc1 [Example I-458, 6-(((1-(4-((1H-pyrazol-1-yl)methyl)benzyl)-1H-pyrazolo[4,3-c]pyridin-6-yl)amino)methyl)-5,7-dimethylisoquinolin-1-amine] |

From patent US20260374754A1, “N-((ISOQUINOLIN-6-YL)METHYL)-1H-PYRAZOLE-4-CARBOXAMIDE DERIVATIVES AS PLASMA KALLIKREIN INHIBITORS FOR THE TREATMENT OF HEREDITARY ANGIODEMA” (Takeda Pharmaceutical Company Limited, priority 2022, published 2026)
